Literature values in patent publication US20150190322A1, “COMPOSITION, METHOD AND KIT FOR ENHANCING HAIR” (PHARMA PATENT HOLDING INC., priority 2009, published 2015).

Conditions: in some patients, during use for reduction of intraocular pressure

For `CC(C)OC(=O)CCC/C=C\C[C@@H]1[C@@H](CC[C@@H](O)CCc2ccccc2)[C@H](O)C[C@@H]1O` [Latanoprost, isopropyl-(Z)-7[(1R, 2R, 3R, 5S)3,5-dihydroxy-2-[(3R)-3-hydroxy-5-phenylp-entyl]cyclopentyl]-5-heptenoate], the “pigmentation and growth of eyelashes” value is given as “increasing pigmentation and growth of eyelashes”.
